Measured values from patent publication US20250161253A1, “NUTRITIONAL PRODUCT” (VITAFLO (INTERNATIONAL) LTD, priority 2012, published 2025).

Legend:
[1] = test system: primary human fibroblasts; experiment: citrate synthase activity in primary human fibroblasts; format: cell-based; details: 250 μM, 6 days
Protocol: Finally, the effect of decanoic acid was validated in an independent cell line. Primary cultures of human fibroblasts were exposed to decanoic acid at a concentration of 250 μM for 6 days. Following the incubation, citrate synthase activity was again assessed.

[2] = test system: SH-SY5Y cells; experiment: Complex I activity in SH-SY5Y cells; format: cell-based, human; details: 250 μM, 6 days
Protocol: In order to gain further independent insight into mitochondrial function, the activity of the respiratory chain enzyme, Complex I, was also evaluated. In a second experiment, cells were exposed to decanoic acid (250 μM, dissolved in 0.5% DMSO) for 6 days. The cells were subsequently harvested, and the activity of Complex I was determined. Each experiment was repeated 5 times, and the activity was expressed as nmol/min/mg of cellular protein.

[3] = test system: SH-SY5Y cells; experiment: citrate synthase activity in SH-SY5Y cells (marker of mitochondrial enrichment); format: cell-based, human; details: 6 days; for effect on citrate synthase activity compared to control cells (in words): 50-300 μM
Protocol: Mitochondrial enrichment was estimated by evaluation of citrate synthase activity (corrected for total cellular protein content). This enzyme is localised at the mitochondria, comprises part of the TCA cycle and is commonly used as a marker of mitochondrial enrichment. A human neuroblastoma cell line (SH-SY5Y) was utilised throughout this study, except where stated. In brief, cells were exposed to a range (50-300 μM, dissolved in 0.5% DMSO) of either octanoic or decanoic acid concentrations. After 6 days, the cells were harvested and citrate synthase activity was determined. Activity was expressed as nmol/min/mg of cellular protein.

[4] = test system: SH-SY5Y cells; experiment: electron microscopy analysis of mitochondrial density and morphology in SH-SY5Y cells; format: cell-based, human; details: 250 μM, p<0.002
Protocol: Additionally, SH-SY5Y cells were prepared for electron microscopy (EM) analysis to assess mitochondrial density and morphology following treatment with decanoic acid.

SMILES	increase in citrate synthase activity [1]	Complex I activity with respect to control ([2]; p<0.002)	Complex I activity normalised against citrate synthase activity ([2]; p<0.05)	increase in citrate synthase activity compared to control cells ([3]; 250 μM, maximum, p<0.001)	citrate synthase activity ([3]; 250 μM, n = 8, control 105 ± 5)	effect on citrate synthase activity compared to control cells (in words) [3]	number of mitochondria per cell (EM) [4]
CCCCCCCCCC(=O)O [Decanoic Acid, decanoic acid]	45%	significant (p<0.002) increase	significant (p<0.05) increase	30%	137 ± 5 nmol/min/mg cell protein	dose dependent	significant (p<0.002) increase
CCCCCCCC(=O)O [Octanoic acid, octanoic acid, reference compound]	–	–	–	–	–	no effect	–
